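96-well plates; 48 h exposure; 5 concentrations. Endpoints by linear interpolation between flanking doses. Not reached: highest tested concentration assigned. The concentration for 50% growth inhibition is given as GI50.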 Activity calls are given as the source filed them. Cut-off read from the data, not from the text of the source: active = GI50 up to about 1.1 µM and inactive = higher.

As usually defined, the GI50 is the concentration at which growth is held to half of that of the control.

Among the test systems are DU-145; SK-MEL-2; HCC 2998; IGROV-1; ACHN; UACC-62; A498; OVCAR-3; KM12; MDA-MB-435; TK-10; MCF7; Malme-3M; SK-OV-3; OVCAR-4; U-251; HOP-92; HCT-15; SR.
What all share (test): DTP human tumour cell line panel, 48 h

Take `CN(C)Cc1cc(/C=C/C(=O)c2ccc(Br)cc2)cc(CN(C)C)c1O`: the GI50 is 15.7 µM (inactive) with DU-145; 26.2 µM (inactive) in the test on SK-MEL-2; 14 µM (inactive) in the test with HCC 2998; 8.95 µM (inactive) in the test with IGROV-1; 11.5 µM (inactive) with ACHN; 20.4 µM (inactive) with UACC-62. Besides, the GI50 is 13.6 µM (inactive) in the test with A498; 20.8 µM (inactive) with OVCAR-3; 13.4 µM (inactive) in the test with KM12; 16.9 µM (inactive) in the test on MDA-MB-435; 12.8 µM (inactive) in the test with TK-10; 22.6 µM (inactive) with MCF7. Moreover, the GI50 with Malme-3M is 16.7 µM (inactive); with SK-OV-3, 29.8 µM (inactive).
As for `S=C(NCc1ccccc1)c1nc[nH]c1C(=S)NCc1ccccc1`, the GI50 is 9.27 µM (inactive) in the test on DU-145; 9.08 µM (inactive) with SK-MEL-2; 10 µM (inactive) in the test with HCC 2998; 6.65 µM (inactive) with OVCAR-4; 5.08 µM (inactive) in the test with IGROV-1; 2.69 µM (inactive) in the test with ACHN. The GI50 with UACC-62 is 3.2 µM (inactive); in the test on U-251, 5.87 µM (inactive); in the test with OVCAR-3, 6 µM (inactive); in the test with KM12 it was 6.07 µM (inactive); in the test with MDA-MB-435 it was 6.62 µM (inactive); in the test on HOP-92, 1.88 µM (inactive). The GI50 in the test on TK-10 was 10.5 µM (inactive); with MCF7 it was 2.55 µM (inactive); with HCT-15, 3.83 µM; in the test on Malme-3M, 11 µM (inactive); with SK-OV-3, 12.7 µM (inactive).
On to `C[C@@H]1C[C@@H]2C(=O)N(c3ccccc3)C(=O)[C@@H]2c2[nH]c3ccc(Br)cc3c21`, for which the GI50 in the test with SK-MEL-2 is 55.3 µM (inactive); in the test with HCC 2998 it was 51.1 µM (inactive); with OVCAR-4 it was 21.2 µM (inactive); in the test on IGROV-1 it was 87.1 µM (inactive); in the test on ACHN, 45.1 µM (inactive); in the test on UACC-62, 84.7 µM (inactive). In addition, the GI50 is 13.5 µM (inactive) with U-251; 42 µM (inactive) with SR; 68.4 µM (inactive) in the test with A498; 23.7 µM (inactive) with OVCAR-3; 25.2 µM (inactive) in the test with KM12; 27.6 µM (inactive) in the test on HOP-92. Moreover, the GI50 was 68.9 µM (inactive) in the test with TK-10, 34.3 µM in the test on HCT-15, 39.4 µM (inactive) with Malme-3M and 22.3 µM (inactive) in the test on SK-OV-3.
On to `C=CC1(C(=O)O)CCC(C(C)(C)C)CC1` (centres undefined), for which the GI50 with SK-MEL-2, in the test on HCC 2998, in the test with OVCAR-4, in the test with IGROV-1, with ACHN and in the test with UACC-62 was > 100 µM (inactive) in each case. For the same molecule, the GI50 in the test on U-251, in the test with SR, in the test with A498, in the test on OVCAR-3, in the test with KM12 and in the test with HOP-92 was > 100 µM (inactive) each time. Further, the GI50 with TK-10 was > 100 µM (inactive); with HCT-15, greater than 100 µM; with Malme-3M, > 100 µM (inactive); in the test with SK-OV-3, > 100 µM (inactive).
Turning to `O=C1NC(=S)NC(=O)C1C(c1ccc(Cl)cc1)C1C(=O)NC(=S)NC1=O.c1ccncc1`, the GI50 in the test on DU-145, with SK-MEL-2, in the test on OVCAR-4, in the test on IGROV-1, with ACHN and in the test with UACC-62 was > 100 µM (inactive) each time. Further, the GI50 with U-251, in the test on A498, in the test with OVCAR-3, with KM12, with MDA-MB-435 and in the test with HOP-92 was > 100 µM (inactive) each time. Also, the GI50 is > 100 µM (inactive) in the test on TK-10, > 100 µM (inactive) in the test on MCF7, greater than 100 µM in the test with HCT-15 and 60.8 µM (inactive) in the test with Malme-3M.
